Reference: patent US10179914B2, “CDC25A inhibitor for the treatment of drug resistant cancer or for the prevention of tumor relapse” (INSERM (INSTITUT NATIONAL DE LA SANTÉ ET DE LA RECHERCHE …, priority 2014, dated 2019)

Experiments:
[1] = target: Cdc25C (Homo sapiens, UniProt P30307); settings: cited from earlier work
[2] = test system: TF-1 cells (FLT3 wild type); test: Cell proliferation, trypan blue counting, TF-1; assay type: cell-based, human; settings: 200 nM
Description: (a) MV4-11 and MOLM-14 FLT3-ITD positive cells, KG1, HL-60 and TF-1 FLT3 wild type cells, and K562 FLT3 negative cells were cultured in the presence of the CDC25 inhibitor IRC-083864 (200 nM). Cells were harvested each day and counted after trypan blue coloration. The graph represents three independent experiments.
Cell lines and reagents. Human acute myeloid leukemia cell lines MOLM-14 (Matsuo Y et al, Leukemia 1997) (kindly provided by Martin Carroll, University of Pennsylvania, Philadelphia, Pa., USA) MV4-11, K562 (ACC-102 and ACC-10, DSMZ, Braunschweig, Germany) and FLT3-ITD-expressing murine BaF3 cells were cultured in RPMI 1640 medium (Gibco, Life Technologies, Carlsbad, Calif., USA) supplemented with 10% fetal bovine serum (Sigma, Saint Louis, Calif., USA). TF-1 (ATCC-CRL2003) cells were cultured in RPMI 1640 medium with 10% fetal bovine serum and GM-CSF 2 ng/ml. Concerning MOLM-14 cell line, the presence of a monoallelic 21 bp FLT3-ITD mutation and of an MLL-containing ins(11; 9)(q23;p22p23) were verified (Hematology laboratory of Toulouse University Hospital, Prof E. Delabesse and Dr I. Luquet). KG1 and HL-60 (ACC-14 and ACC-3, DSMZ) cell lines were grown in Iscove's Modified Dulbecco's Medium (IMDM, Gibco) plus 20% FBS. All cells were grown in the presence of 100 units/ml of penicillin and streptomycin (Invitrogen) at 37° C. and 5% CO2.

[3] = test system: C/EBPα Ser21 phosphorylation, c-myc, C/EBPε; test: Western blot of differentiation markers in MOLM-14; assay type: cell-based, human; settings: MOLM-14, 100 nM
Description: (a-b) MOLM-14 and MV4-11 cells were treated for different times with IRC-083864 (100 nM and 200 nM) and the expression of the cell surface markers CD11b, CD14 and CD15 were followed by flow cytometry analysis. (c) MOLM-14 and MV4-11 cells were treated for different times with IRC-083864 (100 nM) and morphological changes were estimated by microscopy after cells were cytospun and stained at days 8 and 13. Original magnification ×100. (d) MOLM-14 cells were treated for different times with IRC-083864 (100 nM) and c-myc expression as well as C/EBPα phosphorylation on serine 21 were analyzed by western blot at day 1, and C/EBPε expression after 6 days of treatment. (e) MOLM-14 cells were transfected with CDC25A shRNA The expression of the cell surface markers CD11b, CD14 and CD15 were followed by flow cytometry analysis at day 3 and 6 (upper panel), and their morphology was analyzed by microscopy after 6 days (lower panel). Original magnification ×100. (f) MOLM-14 cells were transfected with CDC25A siRNA, and their morphology was analyzed by microscopy after 3 days (upper panel). Original magnification ×100. The efficiency of CDC25A siRNA was assessed by western blot analysis (lower panel).
Western blot. 2×10^6 cells were usually lysed in 100 μL of NuPAGE® LDS Sample Buffer (Novex, Life Technologies, Carlsbad, Calif., USA), sonicated for 15 seconds, and boiled for 3 minutes. Proteins were then resolved on NuPAGE® 4-12% Bis-Tris Gels and transferred to nitrocellulose membrane. Saturation of the membrane was done for 1 hour in Tris Buffer Saline with Tween 0.1% (TBS-T) containing 5% non-fat milk or 5% bovine serum albumin. Membranes were blotted with proper antibodies overnight at 4° C., washed thrice with TBS-T, and incubated for 30 minutes with HRP-conjugated secondary antibody (Promega, Madison, Wis., USA). […]

[4] = test system: MOLM-14 cells; test: MOLM-14 xenograft in NSG mice, differentiation in vivo; settings: 5 mg/kg/week i.p., two weeks
Description: (a) NSG mice were injected with 2 millions MOLM-14 cells, and treated with IRC-083864 at 5 mg/kg/week i.p. (n=4) or with vehicle buffer (n=4) as described in the Methods section. Bone marrow cells were extracted after dissection after two weeks and the expression of CD14 and CD15 on human blasts was followed by flow cytometry analysis. (b) Quantification (mean±SEM, n=4) of CD14 and CD15 expression in response to IRC-083864. (c) Morphological analyses of human cells used in (a). Original magnification ×100.
In vivo experiments. Animals were used in accordance to a protocol reviewed and approved by the Institutional Animal Care and User Ethical Committee of the UMS006 and Region Midi-Pyrénées (Approval#13-U1037-JES08). NOD/LtSz-scid IL-2Rγchainnull (NSG) mice (Sanchez P V et al) were produced at the Genotoul Anexplo platform in Toulouse (France) using breeders obtained from The Charles River Laboratory. Mice were housed in sterile conditions using HEPA filtered micro-isolators and fed with irradiated food and acidified water. Transplanted mice were treated with antibiotics (enrofloxacin) for the duration of the experiment. […] Adult mice (6 or 7-week old) were treated with 20 mg/kg Busulfan (Busilvex, Pierre Fabre, France) by i.p. administration 24 hours before injection of leukemic cells. Cultured MOLM-14 cells were washed in PBS and cleared of aggregates and debris using a 0.2 mm cell filter, and suspended in PBS at a final concentration of 2 million cells per 200 μL of PBS per mouse for i.v. injection. IRC-083864 (5 mg/kg/week) was then administrated to leukemic mice by i.p. injection. Daily monitoring of mice for symptoms of disease (ruffled coat, hunched back, weakness and reduced motility) determined the time of animal euthanasia. Cell differentiation was monitored after two IRC-083864 injections: mice were humanely killed in accordance with IACUC protocols. Bone marrow (mixed from tibias and femurs) were dissected, flushed in PBS and made into single cell suspensions for analysis by flow cytometry and cytospins.

Chain of Cdc25C (P30307 whole entry): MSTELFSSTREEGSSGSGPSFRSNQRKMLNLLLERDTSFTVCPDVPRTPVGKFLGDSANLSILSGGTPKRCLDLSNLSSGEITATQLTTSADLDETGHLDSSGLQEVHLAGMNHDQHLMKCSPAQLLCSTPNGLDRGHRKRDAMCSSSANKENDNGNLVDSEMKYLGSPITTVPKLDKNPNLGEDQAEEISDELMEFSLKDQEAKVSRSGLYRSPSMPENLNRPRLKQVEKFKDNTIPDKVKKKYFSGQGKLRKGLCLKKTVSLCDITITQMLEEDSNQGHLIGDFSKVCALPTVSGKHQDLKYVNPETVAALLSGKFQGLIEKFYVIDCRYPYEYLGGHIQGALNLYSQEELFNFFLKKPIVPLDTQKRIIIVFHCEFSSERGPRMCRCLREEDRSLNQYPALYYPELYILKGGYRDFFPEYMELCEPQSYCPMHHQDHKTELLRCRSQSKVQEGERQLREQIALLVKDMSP

In the case of `Cc1nc2c(s1)C(=O)C=C(NCCCN(C)CCCNC1=CC(=O)c3nc(-c4cc(F)ccc4F)oc3C1=O)C2=O` [IRC-083864], the “IC50 Cdc25 enzyme type C” value [1] is given as “nanomolar range”, the “proliferation of TF-1” value [2] is given as “did not decrease” and the “C/EBPα phosphorylation on serine 21” value ([3]; day 1) is given as “dephosphorylation”. For the same compound, the c-myc expression ([3]; day 1) was “down-regulation”, the C/EBPε expression ([3]; day 6) was “up-regulation” and the “CD11b expression on human myeloid cells in bone marrow” value [4] was “no change”. The “CD14 expression on MOLM-14 cells from bone marrow” value [4] was “increased expression”, the “CD15 expression on MOLM-14 cells from bone marrow” value [4] was “unchanged expression” and the “morphology of cytospun human bone marrow cells” value [4] was “monocytic-like nuclear changes”.
